# Experimental data published in patent publication US7300930B2, “Therapeutic acridone and acridine compounds” (Cancer Research Technology Limited, priority 2000, dated 2007).
# How the values were obtained:
# [1] = Growth inhibition, sulforhodamine B (SRB) assay, CH1; assay type: cell-based; conditions: human, CH1 ovarian carcinoma cells, CH1, 96 hr incubation, tested as salts, read-out: Cytotoxicity - IC50 CH1
# Description: (§1) Growth inhibition was measured in three human ovarian carcinoma cell lines (A2780, CH1, and SKOV-3) and one human cervix carcinoma cell line (A431) using the sulforhodamine B (SRB) assay. Briefly, between 3000 and 6000 cells were seeded into the wells of 96-well microtiter plates and allowed to attach overnight. Compounds (acid addition and quaternary dimethiodide salts) were dissolved at 500 μM in water and immediately added to wells in quadruplicate at final concentrations of 0.05, 0.25, 1, 5 and 25 μM. Following an incubation period of 96 hr, remaining cells were fixed with ice-cold 10% w/v trichloroacetic acid (30 min) and stained with 0.4% SRB in 1% v/v acetic acid (15 min). Mean absorbance at 540 nm for each drug concentration was expressed as a percentage of the control untreated well absorbance, and IC50 values (concentration required to inhibit cell growth by 50%) were determined for each agent.
# telomerase = telomerase (Homo sapiens, UniProt O14746); assay: Modified telomeric repeat amplification protocol (TRAP) assay, cell-free; assay type: biochemical; conditions: extracts from A2780 cells, tested as salts, read-out: telIC50 (Telomerase Inhibitory Activity)
# Description: The ability of compounds to inhibit telomerase in a cell-free assay was assessed with a modified TRAP assay using extracts from exponentially growing A2780 human ovarian carcinoma cells. The TRAP assay was performed in 2 steps: (a) telomerase-mediated extension of the forward primer (TS: 5′-AATCCGTCGAGCAGAGTT (SEQ ID NO:3), Oswel Ltd., Southampton, UK) contained in a 40 µL reaction mix comprising TRAP buffer (20 mM Tris-HCl (pH 8.3), 68 mM KCl, 1.5 mM MgCl2, 1 mM EGTA, 0.05% v/v Tween 20), 0.05 μg bovine serum albumin, 50 μM of each deoxynucleotide triphosphate, 0.1 μg TS primer, and 3 μCi of [α-^32P]dCTP (Amersham plc, UK). Protein (40 ng or 20 ng) was then incubated with the reaction mix+agent (acid addition and quaternary dimethiodide salts) at final concentrations of up to 50 μM for 20 min at 25° C. A lysis buffer (no protein) control, heat-inactivated protein control, and 50% protein (20 ng or 10 ng) control were included in each assay; and (b) while heating at 80° C. in a PCR block of a thermal cycler (Hybaid, UK) for 5 min to inactivate telomerase activity, 0.1 μg of reverse CX primer (3′-[…]-5′ (SEQ ID NO:4)) and 2 Units of Taq DNA polymerase (“red hot”, Advanced Biotechnologies) were added. A 3-step PCR was then performed: 94° C. for 30 s, 50° C. for 30 s, and 72° C. for 1 min for 31 cycles. Telomerase-extended PCR products in the presence or absence of compounds were then determined either by electrophoretic separation using 8% w/w acrylamide denaturing gels and analysis by phosphorimaging or autoradiography, or by harvesting on Whatman filters (25 mm glass microfibre) and analysis by liquid scintillation counting.
# [2] = Growth inhibition, sulforhodamine B (SRB) assay, A2780; assay type: cell-based; conditions: human, A2780 ovarian carcinoma cells, A2780, 96 hr incubation, tested as salts, read-out: Cytotoxicity - IC50 A2780
# Description: as §1
# human telomerase = conditions: as described by Read et al., April 2001; cited from earlier work
# [3] = Growth inhibition, sulforhodamine B (SRB) assay, SKOV-3; assay type: cell-based; conditions: human, SKOV-3 ovarian carcinoma cells, SKOV-3, 96 hr incubation, tested as salts, read-out: Cytotoxicity - IC50 SKOV-3
# Description: as §1
# [4] = Growth inhibition, sulforhodamine B (SRB) assay, A431; assay type: cell-based; conditions: human, A431 cervix carcinoma cells, A431, 96 hr incubation, tested as salts, read-out: Cytotoxicity - IC50 A431
# Description: as §1
# Sequence of telomerase (O14746 whole entry): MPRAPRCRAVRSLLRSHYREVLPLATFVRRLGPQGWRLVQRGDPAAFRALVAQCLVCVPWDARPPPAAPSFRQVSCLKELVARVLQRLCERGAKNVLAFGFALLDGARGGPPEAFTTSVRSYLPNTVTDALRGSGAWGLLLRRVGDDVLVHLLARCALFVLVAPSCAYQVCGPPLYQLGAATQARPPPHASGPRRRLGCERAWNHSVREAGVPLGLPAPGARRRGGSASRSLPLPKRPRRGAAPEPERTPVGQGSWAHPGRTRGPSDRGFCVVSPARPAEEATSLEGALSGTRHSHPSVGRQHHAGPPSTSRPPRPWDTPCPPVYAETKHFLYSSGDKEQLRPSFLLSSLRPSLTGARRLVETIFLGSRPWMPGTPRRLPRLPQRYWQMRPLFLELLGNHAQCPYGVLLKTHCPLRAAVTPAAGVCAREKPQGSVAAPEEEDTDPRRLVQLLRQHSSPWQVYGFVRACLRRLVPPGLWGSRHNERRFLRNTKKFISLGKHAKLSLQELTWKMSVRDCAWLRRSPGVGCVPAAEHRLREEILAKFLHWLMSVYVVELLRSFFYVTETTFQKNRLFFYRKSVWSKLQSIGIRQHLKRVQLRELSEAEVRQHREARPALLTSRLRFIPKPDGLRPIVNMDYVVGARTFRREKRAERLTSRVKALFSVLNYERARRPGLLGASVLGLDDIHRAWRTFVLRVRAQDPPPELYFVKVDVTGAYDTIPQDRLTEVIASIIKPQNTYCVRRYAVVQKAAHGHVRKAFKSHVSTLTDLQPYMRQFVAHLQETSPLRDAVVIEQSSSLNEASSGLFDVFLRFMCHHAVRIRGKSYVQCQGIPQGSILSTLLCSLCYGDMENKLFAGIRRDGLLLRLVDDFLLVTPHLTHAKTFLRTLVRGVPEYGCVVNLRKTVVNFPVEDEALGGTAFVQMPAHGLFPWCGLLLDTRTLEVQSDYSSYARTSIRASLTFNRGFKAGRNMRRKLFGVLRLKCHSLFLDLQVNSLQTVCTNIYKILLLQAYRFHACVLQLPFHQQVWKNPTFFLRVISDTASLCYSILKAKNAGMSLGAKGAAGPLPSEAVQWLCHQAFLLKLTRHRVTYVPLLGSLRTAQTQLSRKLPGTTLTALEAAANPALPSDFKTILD
IC50 (telomerase),SMILES,IC50 at 96 h [1],IC50 at 96 h [2],in vitro inhibitory activity against human telomerase (human telomerase),IC50 at 96 h [3],IC50 at 96 h [4]
95 nM,"CN(C)c1ccc(Nc2c3ccc(NC(=O)CCN4CCCC4)cc3nc3cc(NC(=O)CCN4CCCC4)ccc23)cc1 [BR-ACO-19, N-{9-[4′-(N,N-Dimethylamino)phenylamino]}-3,6-bis(3-pyrrolidinopropionamido)acridine]",10.1 µM,10 µM,potent in vitro inhibitory activity,13 µM,15.8 µM
100 nM,"CN(C)c1cccc(Nc2c3ccc(NC(=O)CCN4CCCC4)cc3nc3cc(NC(=O)CCN4CCCC4)ccc23)c1 [JH-ACI-78, N-{9-[3′-(N,N-Dimethylamino)phenylamino]}-3,6-bis(3-pyrrolidinopropionamido)acridine]",2 µM,7.9 µM,–,4 µM,2 µM
140 nM,"COCCNc1c2ccc(NC(=O)CCN3CCCC3)cc2nc2cc(NC(=O)CCN3CCCC3)ccc12 [JH-ACI-86, N-[9-(2-Methoxy-ethylamino)]-3,6-bis(3-pyrrolidinopropionamido)acridine]",3.2 µM,10 µM,–,17.8 µM,10 µM
50 nM,"O=C(CCN1CCCC1)Nc1ccc2c(NCCN3CCCCC3)c3ccc(NC(=O)CCN4CCCC4)cc3nc2c1 [JH-ACI-69, N-[9-(2-Piperidin-1-yl-ethylamino)]-3,6-bis(3-pyrrolidinopropionamido)acridine]",> 25 µM,12.6 µM,–,> 25 µM,11.2 µM
40 nM,"CC(=O)c1ccc(Nc2c3ccc(NC(=O)CCN4CCCC4)cc3nc3cc(NC(=O)CCN4CCCC4)ccc23)cc1 [JH-ACI-90, N-[9-(4′-Acetylphenylamino)]-3,6-bis(3-pyrrolidinopropionamido)acridine]",1.8 µM,3.2 µM,–,3.4 µM,2.2 µM
2330 nM,"O=C(CCN1CCCCC1CO)Nc1ccc2[nH]c3ccc(NC(=O)CCN4CCCCC4CO)cc3c(=O)c2c1 (centres unmarked) [JM-ACO-12, 2,7-Bis[3-(2-hydroxymethylpiperidino)propionamido]-9(10H)-acridone]",> 25 µM,> 25 µM,–,> 25 µM,> 25 µM
18 nM,"CN1CCCC1CCNc1c2ccc(NC(=O)CCN3CCCC3)cc2nc2cc(NC(=O)CCN3CCCC3)ccc12 (centres unmarked) [SB-ACI-12, N-{9-[2-(2′-Aminoethyl)-1-methylpyrrolidino]}-3,6-bis(3-pyrrolidinopropionamido)acridine]",> 25 µM,> 25 µM,–,> 25 µM,≥ 25 µM
60 nM,"Nc1cccc(Nc2c3ccc(NC(=O)CCN4CCCC4)cc3nc3cc(NC(=O)CCN4CCCC4)ccc23)c1 [JH-ACI-74, N-{9-[3′-(Amino)phenylamino]}-3,6-bis(3-pyrrolidinopropionamido)acridine]",15.8 µM,12.6 µM,–,> 25 µM,12.6 µM
12 nM,"O=C(CCN1CCCC1)Nc1ccc(Nc2c3ccc(NC(=O)CCN4CCCC4)cc3nc3cc(NC(=O)CCN4CCCC4)ccc23)cc1 [JC-ACI-9, N-{9-[4′-(3-Pyrrolidin-1-yl-propionylamino)-phenylamino]}-3,6-bis(3-pyrrolidinopropionamido)acridine]",20 µM,> 25 µM,–,> 25 µM,20 µM
20 nM,"Nc1ccccc1Nc1c2ccc(NC(=O)CCN3CCCC3)cc2nc2cc(NC(=O)CCN3CCCC3)ccc12 [JH-ACI-76, N-[9-(2′-(Amino)phenylamino)]-3,6-bis(3-pyrrolidinopropionamido)acridine]",10 µM,11 µM,–,15.8 µM,7.1 µM
160 nM,"CC1(C)CC2CC(C)(CN2CCC(=O)Nc2ccc3c(Nc4ccc(N)cc4)c4ccc(NC(=O)CCN5CC6(C)CC5CC(C)(C)C6)cc4nc3c2)C1 [JH-ACI-101, N-{9-[4′-(Amino)phenylamino]}-3,6-bis[(1,3,3-trimethyl-6-azabicyclo[3.2.1]-octanamino)propionamido]-acridine]",2.3 µM,1.6 µM,–,1.2 µM,2.5 µM
90 nM,"O=C(CCN1CCCC1)Nc1ccc2c(NC3CCCCC3)c3ccc(NC(=O)CCN4CCCC4)cc3nc2c1 [JH-ACI-82, N-[9-(Cyclohexylamino)]-3,6-bis(3-pyrrolidinopropionamido)acridine]",2.8 µM,12.5 µM,–,1.1 µM,2.5 µM
100 nM,"CC(=O)Nc1cccc(Nc2c3ccc(NC(=O)CCN4CCCC4)cc3nc3cc(NC(=O)CCN4CCCC4)ccc23)c1 [SB-ACI-14, N-{9-[(3′-Acetamido)aminophenyl]}-3,6-bis(3-pyrrolidinopropionamido)acridine]",> 25 µM,> 25 µM,–,> 25 µM,> 25 µM
60 nM,"Nc1ccc(Nc2c3ccc(NC(=O)CCN4CCCC4)cc3nc3cc(NC(=O)CCN4CCCC4)ccc23)cc1 [BR-ACO-20, N-[9-(4′-Aminophenylamino)]-3,6-bis(3-pyrrolidinopropionamido)acridine]",> 25 µM,> 25 µM,potent in vitro inhibitory activity,> 25 µM,–
1770 nM,"CC1(C)CC2CC(C)(CN2CCC(=O)Nc2ccc3c(=O)c4ccc(NC(=O)CCN5CC6(C)CC5CC(C)(C)C6)cc4[nH]c3c2)C1 [JH-ACO-32, 3,6-Bis[(1,3,3-trimethyl-6-azabicyclo[3.2.1]-octanamino)propionamido]-9(10H)-acridone]",2.5 µM,1.9 µM,–,2.5 µM,10 µM
60 nM,"CN(C)CCCNc1c2ccc(NC(=O)CCN3CCCC3)cc2nc2cc(NC(=O)CCN3CCCC3)ccc12 [JH-ACI-65, N-{9-[3-(N,N-Dimethyl)aminopropylamino]}-3,6-bis(3-pyrrolidinopropionamido)acridine]",17 µM,> 25 µM,–,15.8 µM,> 25 µM
100 nM,"CSc1cccc(Nc2c3ccc(NC(=O)CCN4CCCC4)cc3nc3cc(NC(=O)CCN4CCCC4)ccc23)c1 [JC-ACI-5, N-{9-[3′-Methylsulfanyl-phenylamino]}-3,6-bis(3-Pyrrolidinopropionamido)acridine]",0.6 µM,2.8 µM,–,3.2 µM,1.3 µM
